# Read-outs that look alike come from different tables or passages of the source. Where a SMILES comes first, the peptide text is derived from it. Bridges are numbered along the chain shown (N, C = ends). [ ]: non-standard residue; d: D form. The star is where a group is joined. hPhe(3,5-F2-4-CF3) = N[C@@H](CCc1cc(F)c(C(F)(F)F)c(F)c1)C(=O)O; NPrPhe(4-CF3) = CCCN[C@@H](Cc1ccc(C(F)(F)F)cc1)C(=O)O; NMeGly(cPent) = CN[C@H](C(=O)O)C1CCCC1; NMeD = CN[C@@H](CC(=O)O)C(=O)O; NMeL = CN[C@@H](CC(C)C)C(=O)O; αMeS = C[C@](N)(CO)C(=O)O; Morpholide = C1CN(*)CCO1; Sar = CNCC(=O)O; tBu = CC(C)(C)*
# Key:
# [1] = biological target: GDP-bound KRAS wild-type protein (Homo sapiens, UniProt P01116); test: Binding to KRAS by surface plasmon resonance (SPR), Single Cycle Kinetics; settings: GDP-bound KRAS wild-type protein, read-out: KRAS KD
# Sequence of GDP-bound KRAS wild-type protein (P01116 whole entry): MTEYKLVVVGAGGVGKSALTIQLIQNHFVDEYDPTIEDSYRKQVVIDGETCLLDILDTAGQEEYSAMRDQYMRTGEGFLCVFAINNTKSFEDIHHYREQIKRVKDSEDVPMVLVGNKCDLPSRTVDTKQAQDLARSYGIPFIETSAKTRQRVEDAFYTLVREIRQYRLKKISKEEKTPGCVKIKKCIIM
# [2] = system: human lung cancer strain NCI-H441;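 also: cell proliferation inhibition after four days measured by CellTiter-Glo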
# [3] = biological target: GDP-bound NRAS wild-type protein (Homo sapiens, UniProt P01111); test: Binding to NRAS by surface plasmon resonance (SPR), Single Cycle Kinetics; settings: for NRAS/KRAS (ratio of KD value for NRAS to KD value for KRAS) / NRAS/KRAS (ratio of KD value with respect to NRAS to KD value with respect to KRAS): GDP-bound NRAS wild-type protein vs GDP-bound KRAS wild-type protein; for NRAS/KRAS (ratio of KD value with respect to GDP-bound NRAS wild-type protein to KD value with respect to KRAS): SPR KD ratio NRAS/KRAS, class symbols
# Sequence of GDP-bound NRAS wild-type protein (P01111 whole entry): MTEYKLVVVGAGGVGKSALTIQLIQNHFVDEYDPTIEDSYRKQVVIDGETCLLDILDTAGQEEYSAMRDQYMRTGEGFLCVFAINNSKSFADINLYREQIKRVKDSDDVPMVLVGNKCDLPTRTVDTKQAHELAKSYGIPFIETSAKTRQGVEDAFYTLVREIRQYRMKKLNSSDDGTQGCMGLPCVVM
# [4] = biological target: GDP-bound HRAS wild-type protein (Homo sapiens, UniProt P01112); test: Binding to HRAS by surface plasmon resonance (SPR), Single Cycle Kinetics; settings: for HRAS/KRAS (ratio of KD value for HRAS to KD value for KRAS) / HRAS/KRAS (ratio of KD value with respect to HRAS to KD value with respect to KRAS): GDP-bound HRAS wild-type protein vs GDP-bound KRAS wild-type protein; for HRAS/KRAS (ratio of KD value with respect to GDP-bound HRAS wild-type protein to KD value with respect to KRAS): SPR KD ratio HRAS/KRAS, class symbols
# Sequence of GDP-bound HRAS wild-type protein (P01112 whole entry): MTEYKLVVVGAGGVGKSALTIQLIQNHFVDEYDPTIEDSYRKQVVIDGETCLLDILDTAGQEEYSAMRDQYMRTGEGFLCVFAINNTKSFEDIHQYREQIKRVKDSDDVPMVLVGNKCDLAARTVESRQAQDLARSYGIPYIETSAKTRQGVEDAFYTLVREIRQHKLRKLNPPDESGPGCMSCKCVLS
# [5] = SPR Single Cycle Kinetics, 1:1 binding model
# [6] = SPR, Single Cycle Kinetics, 1:1 binding model
SMILES,"Kd [1, 5]",IC50 [2],"Kd [1, 6]","NRAS/KRAS (ratio of KD value for NRAS to KD value for KRAS) ([3]; SPR, KD ratio class)","HRAS/KRAS (ratio of KD value for HRAS to KD value for KRAS) ([4]; SPR, KD ratio class)",also measured
CCO[C@@H]1C[C@H]2C(=O)NC3(CC(C)(C)C3)C(=O)N(C)[C@@H](C3CCCC3)C(=O)N(C)[C@H](C(=O)N(C)C)CC(=O)N(C)[C@H]3CCCCCc4ccc(cc4)C[C@@H](C(=O)N(C)CC(=O)N[C@@H](CCc4ccc(Cl)c(Cl)c4)C(=O)N2C1)N1CC/C=C\C[C@@H](C1=O)N(C)C(=O)CN(C)C(=O)[C@H]([C@@H](C)CC)NC3=O [PP3076],–,–,–,–,–,"Kd ([1]; SPR, Single Cycle Kinetics): 0.059 nM; IC50 ([2]; read-out: NCI-H441 cell proliferation inhibitory activity, 50% proliferation inhibitory concentration (IC50 value), NCI-H441, four days, CellTiter-Glo): 4.1 nM; NRAS/KRAS (ratio of KD value for NRAS to KD value for KRAS) ([3]; SPR): AA (a compound having 20 or more is denoted as AA); ratio of the KD value with respect to GDP-bound NRAS wild-type protein to the KD value with respect to KRAS ([3]; SPR, KD(NRAS)/KD(KRAS)): AA (a compound having 20 or more is denoted as AA); HRAS/KRAS (ratio of KD value for HRAS to KD value for KRAS) ([4]; SPR): A (a compound having 10 or more and less than 20 is denoted as A); ratio of the KD value with respect to GDP-bound HRAS wild-type protein to the KD value with respect to KRAS ([4]; SPR, KD(HRAS)/KD(KRAS)): A (a compound having 10 or more and less than 20 is denoted as A)"
CCO[C@@H]1C[C@H]2C(=O)NC3(CCC3)C(=O)N(C)[C@@H](C3CCCC3)C(=O)N(CCC3CCCC3)[C@H](C(=O)N(C)C)CC(=O)N(C)[C@@H](CC)C(=O)N[C@@H]([C@@H](C)CC)C(=O)N(C)CC(=O)N(C)[C@H]3CCCCN(C3=O)[C@@H](Cc3ccc(C(F)(F)F)cc3)C(=O)N(C)CC(=O)N[C@@H](CCc3cc(F)c(C(F)(F)F)c(F)c3)C(=O)N2C1 [PP0646],0.14 nM,17 nM,–,–,–,NRAS/KRAS (ratio of KD value with respect to NRAS to KD value with respect to KRAS) ([3]; SPR): C (A compound having a KD ratio of 0.1 or more and less than 3 is denoted as C); HRAS/KRAS (ratio of KD value with respect to HRAS to KD value with respect to KRAS) ([4]; SPR): B (a compound having 3 or more and less than 10 is denoted as B)
"CCCN1C(=O)CN(C)C(=O)CN(C)C(=O)[C@H]([C@@H](C)CC)NC(=O)[C@H](CC(C)C)N(C)C(=O)C[C@@H](C(=O)N2CCOCC2)N(C)C(=O)[C@H](C2CCCC2)N(C)C(=O)[C@](C)(COC(C)(C)C)NC(=O)[C@@H]2CCCN2C(=O)[C@H](CCc2cc(F)c(C(F)(F)F)c(F)c2)NC(=O)CN(C)C(=O)[C@@H]1Cc1ccc(C(F)(F)F)cc1 [PP0764] ([NMeL]I[Sar][Sar][NPrPhe(4-CF3)][Sar][hPhe(3,5-F2-4-CF3)]P[αMeS](tBu)[NMeGly(cPent)][NMeD]-Morpholide; lactam N-11)",3.4 nM,215 nM,–,–,–,NRAS/KRAS (ratio of KD value with respect to NRAS to KD value with respect to KRAS) ([3]; SPR): B (a compound having 3 or more and less than 10 is denoted as B); HRAS/KRAS (ratio of KD value with respect to HRAS to KD value with respect to KRAS) ([4]; SPR): B (a compound having 3 or more and less than 10 is denoted as B)
"CCOC[C@H]1C(=O)N[C@@H]([C@@H](C)CC)C(=O)N(C)CC(=O)N(C)[C@H]2C/C=C\CCN(C2=O)[C@@H](Cc2ccc(C(F)(F)F)cc2)C(=O)N(C)CC(=O)N[C@@H](CCc2cc(F)c(C(F)(F)F)c(F)c2)C(=O)N2C[C@H](OCC)C[C@H]2C(=O)NC2(CCC2)C(=O)N(C)[C@@H](C2CCCC2)C(=O)N(C)[C@H](C(=O)N(C)C)CC(=O)N1C [PP1266, (2S,8S,12R,14S,20S,23S,27S,30S,36S,38Z)-20-cyclopentyl-8-[2-[3,5-difluoro-4-(trifluoromethyl)phenyl]ethyl]-12-ethoxy-27-(ethoxymethyl)-N,N,4,19,22,26,32,35-octamethyl-30-[(1S)-1-methylpropyl]-3,6,9,15,18,21,25,28,31,34,42-undecaoxo-2-[[4-(trifluoromethyl)phenyl]methyl]spiro[1,4,7,10,16,19,22,26,29,32,35-undecazatricyclo[34.5.1.0^10,14]dotetracont-38-ene-17,1′-cyclobutane]-23-carboxamide]",–,12.2 nM,0.045 nM,A (a compound having 10 or more and less than 20 is denoted as A),A (a compound having 10 or more and less than 20 is denoted as A),–
CCCOC[C@H]1C(=O)N[C@@H]([C@@H](C)CC)C(=O)N(C)CC(=O)N(C)[C@H]2C/C=C\CCN(C2=O)[C@@H](CC2CCC(F)(F)CC2)C(=O)N(C)CC(=O)N[C@@H](CCc2ccc(C(F)(F)F)c(OC)c2)C(=O)N2C[C@@H](C)C[C@H]2C(=O)NC2(CC(C)(C)C2)C(=O)N(C)[C@@H](C(CC)CC)C(=O)N(C)[C@H](C(=O)N(C)C)CC(=O)N1C [PP2483],–,195 nM,–,–,–,"Kd ([1]; SPR, Single Cycle Kinetics): 1.6 nM; NRAS/KRAS (ratio of KD value for NRAS to KD value for KRAS) ([3]; SPR): A (a compound having 10 or more and less than 20 is denoted as A); HRAS/KRAS (ratio of KD value for HRAS to KD value for KRAS) ([4]; SPR): A (a compound having 10 or more and less than 20 is denoted as A)"
CCCC[C@H]1C(=O)N[C@@H]([C@@H](C)CC)C(=O)N(C)CC(=O)N(C)[C@H]2C/C=C\CCN(C2=O)[C@@H](Cc2ccc(C(F)(F)F)cc2)C(=O)N(C)CC(=O)N[C@@H](CCc2cc(F)c(C(F)(F)F)c(F)c2)C(=O)N2C[C@H](OCC)C[C@H]2C(=O)NC2(CCC2)C(=O)N(C)[C@@H](C2CCCC2)C(=O)N(C)[C@H](C(=O)N(C)CC)CC(=O)N1C [PP1558],–,3.4 nM,0.11 nM,A (a compound having 10 or more and less than 20 is denoted as A),B (a compound having 3 or more and less than 10 is denoted as B),–
CCOC[C@H]1C(=O)N[C@@H]([C@@H](C)CC)C(=O)N(C2CC2)CC(=O)N(C)[C@H]2C/C=C\CCN(C2=O)[C@@H](Cc2ccc(C)cc2)C(=O)N(C)CC(=O)N[C@@H](CCc2ccc(Cl)c(Cl)c2)C(=O)N2C[C@H](OCC)C[C@H]2C(=O)NC2(CC(C)(C)C2)C(=O)N(C)[C@@H](CC(C)(C)C)C(=O)N(C)[C@H](C(=O)N(C)C)CC(=O)N1C [PP2728],1.1 nM,54.3 nM,–,–,–,NRAS/KRAS (ratio of KD value with respect to GDP-bound NRAS wild-type protein to KD value with respect to KRAS) [3]: AA (a compound having 20 or more is denoted as AA); HRAS/KRAS (ratio of KD value with respect to GDP-bound HRAS wild-type protein to KD value with respect to KRAS) [4]: A (a compound having 10 or more and less than 20 is denoted as A)
CCO[C@@H]1C[C@H]2C(=O)NC3(CCCC3)C(=O)N(C)[C@@H](C3CCCC3)C(=O)N(C)[C@H](C(=O)N(C)C)CC(=O)N(C)[C@@H](CC(C)C)C(=O)N[C@@H]([C@@H](C)CC)C(=O)N(C)CC(=O)N(C)[C@H]3C/C=C\CCN(C3=O)[C@@H](CC3CCC(F)(F)CC3)C(=O)N(C)CC(=O)N[C@@H](CCc3cc(F)c(C(F)(F)F)c(F)c3)C(=O)N2C1 [PP1459],–,38.6 nM,0.2 nM,A (a compound having 10 or more and less than 20 is denoted as A),A (a compound having 10 or more and less than 20 is denoted as A),–
CCOC[C@H]1C(=O)N[C@@H]([C@@H](C)CC)C(=O)N(C)CC(=O)N(C)[C@H]2C/C=C\CCN(C2=O)[C@@H](Cc2ccc(C)cc2)C(=O)N(C)CC(=O)N[C@@H](CCc2ccc(C(F)(F)F)c(OC)c2)C(=O)N2C[C@H](C)C[C@H]2C(=O)NC2(CC(C)(C)C2)C(=O)N(C)[C@@H](C2CCCC2)C(=O)N(C)[C@H](C(=O)N(C)C)CC(=O)N1C [PP2393],–,28.2 nM,–,–,–,"Kd ([1]; SPR, Single Cycle Kinetics): 0.12 nM; NRAS/KRAS (ratio of KD value for NRAS to KD value for KRAS) ([3]; SPR): A (a compound having 10 or more and less than 20 is denoted as A); HRAS/KRAS (ratio of KD value for HRAS to KD value for KRAS) ([4]; SPR): A (a compound having 10 or more and less than 20 is denoted as A)"
CCO[C@@H]1C[C@H]2C(=O)NC3(CCC3)C(=O)N(C)[C@@H](C3CCCC3)C(=O)N(C)[C@H](C(=O)N3CCCC3)CC(=O)N(C)[C@@H](CC3CCCC3)C(=O)N[C@@H]([C@@H](C)CC)C(=O)N(C)CC(=O)N(C)[C@H]3C/C=C\CCN(C3=O)[C@@H](Cc3ccc(C)cc3)C(=O)N(C)CC(=O)N[C@@H](CCc3cc(F)c(C(F)(F)F)c(F)c3)C(=O)N2C1 [PP1412],–,23 nM,0.19 nM,A (a compound having 10 or more and less than 20 is denoted as A),A (a compound having 10 or more and less than 20 is denoted as A),–
CCC[C@H]1C(=O)N[C@@H]([C@@H](C)CC)C(=O)N(C2CC2)CC(=O)N(C)[C@H]2C/C=C\CCN(C2=O)[C@@H](Cc2ccc(C)cc2)C(=O)N(C)CC(=O)N[C@@H](CCc2cc(F)c(C(F)(F)F)c(F)c2)C(=O)N2C[C@H](OCC)C[C@H]2C(=O)NC2(CC(C)(C)C2)C(=O)N(C)[C@@H](C(CC)CC)C(=O)N(C)[C@H](C(=O)N(C)C)CC(=O)N1C [PP2560],1 nM,46.3 nM,–,–,–,NRAS/KRAS (ratio of KD value with respect to GDP-bound NRAS wild-type protein to KD value with respect to KRAS) [3]: AA (a compound having 20 or more is denoted as AA); HRAS/KRAS (ratio of KD value with respect to GDP-bound HRAS wild-type protein to KD value with respect to KRAS) [4]: A (a compound having 10 or more and less than 20 is denoted as A)

# Source: patent publication US20240158446A1, “CYCLIC COMPOUND HAVING SELECTIVE INHIBITORY ACTION ON KRAS OVER HRAS AND NRAS” (CHUGAI SEIYAKU KABUSHIKI KAISHA, priority 2021, published 2024)
